Experiments:
Type in all cases: functional
[1] = system: Botrytis cinerea; assay: Fungicidal activity against anilinopyrimidine-sensitive Botryotinia fuckeliana KU-59 isolated from grape plant assessed as inhibition of mycelial growth at 30 mg/l after 4 days; conditions: KU-59, 96 h, read-out: GI
[2] = system: Botrytis cinerea; assay: Fungicidal activity against anilinopyrimidine-sensitive Botryotinia fuckeliana KU-59 isolated from grape plant assessed as inhibition of mycelial growth at 10 mg/l after 4 days; conditions: KU-59, 96 h, read-out: GI
[3] = system: Botrytis cinerea; assay: Fungicidal activity against anilinopyrimidine-sensitive Botryotinia fuckeliana KU-59 isolated from grape plant assessed as inhibition of mycelial growth at 3 mg/l after 4 days; conditions: KU-59, 96 h, read-out: GI
[4] = system: Botrytis cinerea; assay: Fungicidal activity against anilinopyrimidine-sensitive Botryotinia fuckeliana KU-59 isolated from grape plant assessed as inhibition of mycelial growth at 1 mg/l after 4 days; conditions: KU-59, 96 h, read-out: GI
[5] = system: Botrytis cinerea; assay: Fungicidal activity against anilinopyrimidine-sensitive Botryotinia fuckeliana KU-59 isolated from grape plant assessed as inhibition of mycelial growth at 0.3 mg/l after 4 days; conditions: KU-59, 96 h, read-out: GI
[6] = system: Botrytis cinerea; assay: Fungicidal activity against anilinopyrimidine-sensitive Botryotinia fuckeliana KU-59 isolated from grape plant assessed as inhibition of mycelial growth at 0.1 mg/l after 4 days; conditions: KU-59, 96 h, read-out: GI
[7] = system: Botrytis cinerea; assay: Fungicidal activity against anilinopyrimidine-sensitive Botryotinia fuckeliana KU-01 isolated from grape plant assessed as inhibition of mycelial growth at 100 mg/l after 4 days; conditions: KU-01, 96 h, read-out: GI
[8] = system: Botrytis cinerea; assay: Fungicidal activity against anilinopyrimidine-sensitive Botryotinia fuckeliana KU-01 isolated from grape plant assessed as inhibition of mycelial growth at 30 mg/l after 4 days; conditions: KU-01, 96 h, read-out: GI
[9] = system: Botrytis cinerea; assay: Fungicidal activity against anilinopyrimidine-sensitive Botryotinia fuckeliana KU-01 isolated from grape plant assessed as inhibition of mycelial growth at 10 mg/l after 4 days; conditions: KU-01, 96 h, read-out: GI
[10] = system: Botrytis cinerea; assay: Fungicidal activity against anilinopyrimidine-sensitive Botryotinia fuckeliana KU-01 isolated from grape plant assessed as inhibition of mycelial growth at 3 mg/l after 4 days; conditions: KU-01, 96 h, read-out: GI
[11] = system: Botrytis cinerea; assay: Fungicidal activity against anilinopyrimidine-sensitive Botryotinia fuckeliana KU-01 isolated from grape plant assessed as inhibition of mycelial growth at 1 mg/l after 4 days; conditions: KU-01, 96 h, read-out: GI
[12] = system: Botrytis cinerea; assay: Fungicidal activity against anilinopyrimidine-sensitive Botryotinia fuckeliana KU-59 infected in strawberry fruit assessed as inhibition of mycelial growth at 200 mg/l treated 2-3 hr before challenge measured after 5 days; conditions: read-out: GI
[13] = system: Botrytis cinerea; assay: Fungicidal activity against anilinopyrimidine-sensitive Botryotinia fuckeliana KU-59 infected in strawberry fruit assessed as inhibition of mycelial growth at 100 mg/l treated 2-3 hr before challenge measured after 5 days; conditions: read-out: GI
[14] = system: Botrytis cinerea; assay: Fungicidal activity against anilinopyrimidine-sensitive Botryotinia fuckeliana KU-59 infected in strawberry fruit assessed as inhibition of mycelial growth at 50 mg/l treated 2-3 hr before challenge measured after 5 days; conditions: read-out: GI
[15] = system: Botrytis cinerea; assay: Fungicidal activity against anilinopyrimidine-sensitive Botryotinia fuckeliana KU-01 infected in strawberry fruit assessed as inhibition of mycelial growth at 200 mg/l treated 2-3 hr before challenge measured after 5 days; conditions: read-out: GI
[16] = system: Botrytis cinerea; assay: Fungicidal activity against anilinopyrimidine-sensitive Botryotinia fuckeliana KU-01 infected in strawberry fruit assessed as inhibition of mycelial growth at 100 mg/l treated 2-3 hr before challenge measured after 5 days; conditions: read-out: GI
[17] = system: Botrytis cinerea; assay: Fungicidal activity against anilinopyrimidine-sensitive Botryotinia fuckeliana KU-01 infected in strawberry fruit assessed as inhibition of mycelial growth at 50 mg/l treated 2-3 hr before challenge measured after 5 days; conditions: read-out: GI
[18] = system: Botrytis cinerea; assay: Fungicidal activity against anilinopyrimidine-resistant Botryotinia fuckeliana CH164.94 infected in strawberry fruit assessed as inhibition of mycelial growth at 200 mg/l treated 2-3 hr before challenge measured after 5 days; conditions: read-out: GI
[19] = system: Botrytis cinerea; assay: Fungicidal activity against anilinopyrimidine-resistant Botryotinia fuckeliana CH164.94 infected in strawberry fruit assessed as inhibition of mycelial growth at 100 mg/l treated 2-3 hr before challenge measured after 5 days; conditions: read-out: GI
[20] = system: Botrytis cinerea; assay: Fungicidal activity against anilinopyrimidine-resistant Botryotinia fuckeliana CH164.94 infected in strawberry fruit assessed as inhibition of mycelial growth at 50 mg/l treated 2-3 hr before challenge measured after 5 days; conditions: read-out: GI
[21] = system: Botrytis cinerea; assay: Fungicidal activity against anilinopyrimidine-resistant Botryotinia fuckeliana CH15.93 infected in strawberry fruit assessed as inhibition of mycelial growth at 200 mg/l treated 2-3 hr before challenge measured after 5 days; conditions: read-out: GI
[22] = system: Botrytis cinerea; assay: Fungicidal activity against anilinopyrimidine-resistant Botryotinia fuckeliana CH15.93 infected in strawberry fruit assessed as inhibition of mycelial growth at 100 mg/l treated 2-3 hr before challenge measured after 5 days; conditions: read-out: GI
[23] = system: Botrytis cinerea; assay: Fungicidal activity against anilinopyrimidine-resistant Botryotinia fuckeliana CH15.93 infected in strawberry fruit assessed as inhibition of mycelial growth at 50 mg/l treated 2-3 hr before challenge measured after 5 days; conditions: read-out: GI
[24] = system: Botrytis cinerea; assay: Fungicidal activity against anilinopyrimidine-resistant Botryotinia fuckeliana CH12.92 infected in strawberry fruit assessed as inhibition of mycelial growth at 200 mg/l treated 2-3 hr before challenge measured after 5 days; conditions: read-out: GI
[25] = system: Botrytis cinerea; assay: Fungicidal activity against anilinopyrimidine-resistant Botryotinia fuckeliana CH12.92 infected in strawberry fruit assessed as inhibition of mycelial growth at 100 mg/l treated 2-3 hr before challenge measured after 5 days; conditions: read-out: GI
[26] = system: Botrytis cinerea; assay: Fungicidal activity against anilinopyrimidine-resistant Botryotinia fuckeliana CH12.92 infected in strawberry fruit assessed as inhibition of mycelial growth at 50 mg/l treated 2-3 hr before challenge measured after 5 days; conditions: read-out: GI
[27] = system: Botrytis cinerea; assay: Fungicidal activity against anilinopyrimidine-sensitive Botryotinia fuckeliana KU-59 isolated from grape plant assessed as inhibition of mycelial growth at 100 mg/l after 4 days; conditions: KU-59, 96 h, read-out: GI
[28] = system: Botrytis cinerea; assay: Fungicidal activity against anilinopyrimidine-sensitive Botryotinia fuckeliana KU-01 isolated from grape plant assessed as inhibition of mycelial growth at 0.3 mg/l after 4 days; conditions: KU-01, 96 h, read-out: GI
[29] = system: Botrytis cinerea; assay: Fungicidal activity against anilinopyrimidine-sensitive Botryotinia fuckeliana KU-01 isolated from grape plant assessed as inhibition of mycelial growth at 0.1 mg/l after 4 days; conditions: KU-01, 96 h, read-out: GI
[30] = system: Botrytis cinerea; assay: Fungicidal activity against anilinopyrimidine-resistant Botryotinia fuckeliana CH164.94 isolated from grape plant assessed as inhibition of mycelial growth at 100 mg/l after 4 days; conditions: CH164.94, 96 h, read-out: GI
[31] = system: Botrytis cinerea; assay: Fungicidal activity against anilinopyrimidine-resistant Botryotinia fuckeliana CH15.93 isolated from grape plant assessed as inhibition of mycelial growth at 0.1 mg/l after 4 days; conditions: CH15.93, 96 h, read-out: GI
[32] = system: Botrytis cinerea; assay: Fungicidal activity against anilinopyrimidine-resistant Botryotinia fuckeliana CH164.94 isolated from grape plant assessed as inhibition of mycelial growth at 30 mg/l after 4 days; conditions: CH164.94, 96 h, read-out: GI
[33] = system: Botrytis cinerea; assay: Fungicidal activity against anilinopyrimidine-resistant Botryotinia fuckeliana CH164.94 isolated from grape plant assessed as inhibition of mycelial growth at 10 mg/l after 4 days; conditions: CH164.94, 96 h, read-out: GI
[34] = system: Botrytis cinerea; assay: Fungicidal activity against anilinopyrimidine-resistant Botryotinia fuckeliana CH164.94 isolated from grape plant assessed as inhibition of mycelial growth at 3 mg/l after 4 days; conditions: CH164.94, 96 h, read-out: GI
[35] = system: Botrytis cinerea; assay: Fungicidal activity against anilinopyrimidine-resistant Botryotinia fuckeliana CH164.94 isolated from grape plant assessed as inhibition of mycelial growth at 1 mg/l after 4 days; conditions: CH164.94, 96 h, read-out: GI
[36] = system: Botrytis cinerea; assay: Fungicidal activity against anilinopyrimidine-resistant Botryotinia fuckeliana CH164.94 isolated from grape plant assessed as inhibition of mycelial growth at 0.3 mg/l after 4 days; conditions: CH164.94, 96 h, read-out: GI
[37] = system: Botrytis cinerea; assay: Fungicidal activity against anilinopyrimidine-resistant Botryotinia fuckeliana CH164.94 isolated from grape plant assessed as inhibition of mycelial growth at 0.1 mg/l after 4 days; conditions: CH164.94, 96 h, read-out: GI
[38] = system: Botrytis cinerea; assay: Fungicidal activity against anilinopyrimidine-resistant Botryotinia fuckeliana CH15.93 isolated from grape plant assessed as inhibition of mycelial growth at 100 mg/l after 4 days; conditions: CH15.93, 96 h, read-out: GI
[39] = system: Botrytis cinerea; assay: Fungicidal activity against anilinopyrimidine-resistant Botryotinia fuckeliana CH15.93 isolated from grape plant assessed as inhibition of mycelial growth at 30 mg/l after 4 days; conditions: CH15.93, 96 h, read-out: GI
[40] = system: Botrytis cinerea; assay: Fungicidal activity against anilinopyrimidine-resistant Botryotinia fuckeliana CH15.93 isolated from grape plant assessed as inhibition of mycelial growth at 10 mg/l after 4 days; conditions: CH15.93, 96 h, read-out: GI
[41] = system: Botrytis cinerea; assay: Fungicidal activity against anilinopyrimidine-resistant Botryotinia fuckeliana CH15.93 isolated from grape plant assessed as inhibition of mycelial growth at 3 mg/l after 4 days; conditions: CH15.93, 96 h, read-out: GI
[42] = system: Botrytis cinerea; assay: Fungicidal activity against anilinopyrimidine-resistant Botryotinia fuckeliana CH15.93 isolated from grape plant assessed as inhibition of mycelial growth at 1 mg/l after 4 days; conditions: CH15.93, 96 h, read-out: GI
[43] = system: Botrytis cinerea; assay: Fungicidal activity against anilinopyrimidine-resistant Botryotinia fuckeliana CH15.93 isolated from grape plant assessed as inhibition of mycelial growth at 0.3 mg/l after 4 days; conditions: CH15.93, 96 h, read-out: GI
[44] = system: Botrytis cinerea; assay: Fungicidal activity against anilinopyrimidine-resistant Botryotinia fuckeliana CH12.92 isolated from grape plant assessed as inhibition of mycelial growth at 0.1 mg/l after 4 days; conditions: CH12.92, 96 h, read-out: GI
[45] = system: Botrytis cinerea; assay: Fungicidal activity against anilinopyrimidine-resistant Botryotinia fuckeliana CH12.92 isolated from grape plant assessed as inhibition of mycelial growth at 0.3 mg/l after 4 days; conditions: CH12.92, 96 h, read-out: GI
[46] = system: Botrytis cinerea; assay: Fungicidal activity against anilinopyrimidine-resistant Botryotinia fuckeliana CH12.92 isolated from grape plant assessed as inhibition of mycelial growth at 1 mg/l after 4 days; conditions: CH12.92, 96 h, read-out: GI
[47] = system: Botrytis cinerea; assay: Fungicidal activity against anilinopyrimidine-resistant Botryotinia fuckeliana CH12.92 isolated from grape plant assessed as inhibition of mycelial growth at 3 mg/l after 4 days; conditions: CH12.92, 96 h, read-out: GI
[48] = system: Botrytis cinerea; assay: Fungicidal activity against anilinopyrimidine-resistant Botryotinia fuckeliana CH12.92 isolated from grape plant assessed as inhibition of mycelial growth at 10 mg/l after 4 days; conditions: CH12.92, 96 h, read-out: GI
[49] = system: Botrytis cinerea; assay: Fungicidal activity against anilinopyrimidine-resistant Botryotinia fuckeliana CH12.92 isolated from grape plant assessed as inhibition of mycelial growth at 30 mg/l after 4 days; conditions: CH12.92, 96 h, read-out: GI
[50] = system: Botrytis cinerea; assay: Fungicidal activity against anilinopyrimidine-resistant Botryotinia fuckeliana CH12.92 isolated from grape plant assessed as inhibition of mycelial growth at 100 mg/l after 4 days; conditions: CH12.92, 96 h, read-out: GI

## CC#Cc1cc(C)nc(Nc2ccccc2)n1 [MEPANIPYRIM]
[1]
  inhibition of growth at 30 µg/mL: 100%
[2]
  inhibition of growth at 10 µg/mL: 100%
[3]
  inhibition of growth at 3 µg/mL: 100%
[4]
  inhibition of growth at 1 µg/mL: 100%
[5]
  inhibition of growth at 0.3 µg/mL: 100%
[6]
  inhibition of growth at 0.1 µg/mL: 86.4%
[7]
  inhibition of growth at 100 µg/mL: 100%
[8]
  inhibition of growth at 30 µg/mL: 100%
[9]
  inhibition of growth at 10 µg/mL: 100%
[10]
  inhibition of growth at 3 µg/mL: 100%
[11]
  inhibition of growth at 1 µg/mL: 100%
[12]
  inhibition of growth at 200 µg/mL: 100%
[13]
  inhibition of growth at 100 µg/mL: 100%
[14]
  inhibition of growth at 50 µg/mL: 100%
[15]
  inhibition of growth at 200 µg/mL: 100%
[16]
  inhibition of growth at 100 µg/mL: 100%
[17]
  inhibition of growth at 50 µg/mL: 100%
[18]
  inhibition of growth at 200 µg/mL: 0%
[19]
  inhibition of growth at 100 µg/mL: 0%
[20]
  inhibition of growth at 50 µg/mL: 0%
[21]
  inhibition of growth at 200 µg/mL: 0%
[22]
  inhibition of growth at 100 µg/mL: 0%
[23]
  inhibition of growth at 50 µg/mL: 0%
[24]
  inhibition of growth at 200 µg/mL: 0%
[25]
  inhibition of growth at 100 µg/mL: 0%
[26]
  inhibition of growth at 50 µg/mL: 0%
[27]
  inhibition of growth at 100 µg/mL: 100%
[28]
  inhibition of growth at 0.3 µg/mL: 100%
[29]
  inhibition of growth at 0.1 µg/mL: 75.5%
[30]
  inhibition of growth at 100 µg/mL: 70.8%
[31]
  inhibition of growth at 0.1 µg/mL: 0%
[32]
  inhibition of growth at 30 µg/mL: 66.2%
[33]
  inhibition of growth at 10 µg/mL: 67.1%
[34]
  inhibition of growth at 3 µg/mL: 57.9%
[35]
  inhibition of growth at 1 µg/mL: 38.3%
[36]
  inhibition of growth at 0.3 µg/mL: 0%
[37]
  inhibition of growth at 0.1 µg/mL: 0%
[38]
  inhibition of growth at 100 µg/mL: 75.4%
[39]
  inhibition of growth at 30 µg/mL: 74.1%
[40]
  inhibition of growth at 10 µg/mL: 72.6%
[41]
  inhibition of growth at 3 µg/mL: 65.7%
[42]
  inhibition of growth at 1 µg/mL: 34.9%
[43]
  inhibition of growth at 0.3 µg/mL: 0%
[44]
  inhibition of growth at 0.1 µg/mL: 0%
[45]
  inhibition of growth at 0.3 µg/mL: 19.8%
[46]
  inhibition of growth at 1 µg/mL: 42.6%
[47]
  inhibition of growth at 3 µg/mL: 60.1%
[48]
  inhibition of growth at 10 µg/mL: 65.7%
[49]
  inhibition of growth at 30 µg/mL: 63.2%
[50]
  inhibition of growth at 100 µg/mL: 70.4%
